From patent US8026359B2, “Fungicidal heterocyclic amines” (E.I. du Pont de Nemours and Company, priority 2007, dated 2011)

Key:
Format in all cases: in vivo
[1] = system: Erysiphe graminis f. sp. tritici; assay: Test A: wheat powdery mildew, preventive spray on wheat seedlings; settings: 200 ppm, 100 = 100% disease control, 0 = no control relative to controls; for pest or weed control at 200 ppm: Blumeria graminis, 192 h, read-out: Test A disease control rating
Method in brief: (§1)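 Two spray concentrations are used, 40 ppm and 200 ppm, the latter matching a rate of 500 g/ha, applied until run-off. The carrier is half acetone, half purified water with 250 ppm surfactant, and acetone for initial dissolution makes up 3% of the volume.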

[2] = system: Puccinia recondita f. sp. tritici; assay: Test B: wheat leaf rust, preventive spray on wheat seedlings; settings: 200 ppm, 100 = 100% disease control, 0 = no control relative to controls; for pest or weed control at 200 ppm: Puccinia recondita, 192 h, read-out: Test B disease control rating
Method in brief: as §1

Septoria nodorum = assay: Test C: wheat glume blotch, preventive spray on wheat seedlings; settings: 200 ppm, 100 = 100% disease control, 0 = no control relative to controls; for pest or weed control at 200 ppm: Parastagonospora nodorum, 216 h, read-out: Test C disease control rating
Method in brief: as §1

Septoria tritici = assay: Test D: wheat leaf blotch, preventive spray on wheat seedlings; settings: 200 ppm, 100 = 100% disease control, 0 = no control relative to controls; for pest or weed control at 200 ppm: Zymoseptoria tritici, 504 h, read-out: Test D disease control rating
Method in brief: as §1

Fusarium graminearum = assay: whole plant or invertebrate; settings: for Test E disease control rating: 200 ppm, 100 = 100% disease control, 0 = no control relative to controls; for pest or weed control at 200 ppm: Fusarium graminearum, in Triticum aestivum, 192 h, read-out: Test E disease control rating
Botrytis cinerea = assay: Test F: tomato Botrytis, preventive spray on tomato seedlings; settings: 200 ppm, 100 = 100% disease control, 0 = no control relative to controls; for pest or weed control at 200 ppm: Botrytis cinerea, 120 h, read-out: Test F disease control rating
Method in brief: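 Compounds dissolved in acetone (3% of final volume), suspended in 50/50 acetone/water with 250 ppm Trem® 014. Sprayed preventively to run-off on tomato seedlings at 200 ppm (500 g/ha) or 40 ppm.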

[3] = system: Colletotrichum orbiculare; assay: Test I: cucumber Colletotrichum anthracnose, preventive spray on cucumber seedlings; settings: 100 = 100% disease control, 0 = no control relative to controls; for Test I disease control rating: 200 ppm; for pest or weed control at 200 ppm: Colletotrichum orbiculare, 144 h, read-out: Test I disease control rating
Method in brief: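 Compound was dissolved in acetone (3% of final volume), then suspended in 50/50 acetone/water with 250 ppm Trem 014 surfactant. Cucumber seedlings were sprayed to run-off as a preventive treatment at 200 ppm (equivalent to 500 g/ha) or 40 ppm.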

Rhizoctonia oryzae = assay: Test J: turf brown patch, preventive spray on creeping bent grass seedlings; settings: 200 ppm; 100 = 100% disease control, 0 = no control relative to controls
Description: (§2) General protocol for preparing test suspensions for Tests A-R: The test compounds were first dissolved in acetone in an amount equal to 3% of the final volume and then suspended at the desired concentration (in ppm) in acetone and purified water (50/50 mix) containing 250 ppm of the surfactant Trem® 014 (polyhydric alcohol esters). The resulting test suspensions were then used in tests A-R. In Tests A-M, compounds were sprayed as a 200 ppm test suspension (equivalent to a rate of 500 g/ha) or as a 40 ppm test suspension to the point of runoff on the test plants. In Tests N-R, compounds were sprayed as a 100 g/ha test suspension (equivalent to a rate of 100 ppm) on the test plants at an application volume of 1000 L/ha. The test suspension was sprayed to the point of run-off on creeping bent grass seedlings.

Phytophthora infestans = settings: 200 ppm; 100 = 100% disease control, 0 = no control relative to controls
Plasmopara viticola = assay: Test L: grape downy mildew, spray after inoculation of grape seedlings; settings: 200 ppm; 100 = 100% disease control, 0 = no control relative to controls
Description: as §2, with “L/ha. Grape seedlings were inoculated with a spore suspension of Plasmopara viticola (the causal agent of grape downy mildew) and incubated in a saturated atmosphere at 20° C. for 24 h. After a short drying period, the” for “L/ha. The”, “on the grape seedlings and then moved to a growth chamber at 20° C. for 6 days, after which time the test units were placed back into a saturated atmosphere at 20° C. for 24 h. Upon removal, disease ratings were made.” for “on creeping bent grass seedlings.”

Pythium aphanidermatum = assay: Test M: bluegrass pythium blight, preventive spray on bluegrass seedlings; settings: 200 ppm; 100 = 100% disease control, 0 = no control relative to controls
Description: as §2, with “bluegrass” for “creeping bent grass”

COCC(C)Nc1nccc(-c2ccnc(Nc3cccc(C#N)c3)c2)n1 (stereo not shown) [Compound 42]
Test A disease control rating [1]: 0% | Test B disease control rating [2]: 88% | Test C disease control rating (Septoria nodorum): 94% | Test D disease control rating (Septoria tritici): 9% | Test E disease control rating (Fusarium graminearum): 0% | Test F disease control rating (Botrytis cinerea): 75% | Test I disease control rating [3]: 92% | Test J disease control rating (Rhizoctonia oryzae): 0% | Test K disease control rating (Phytophthora infestans): 0% | Test L disease control rating (Plasmopara viticola): 16% | Test M disease control rating (Pythium aphanidermatum): 0%

COCC(C)Nc1cc(-c2ccnc(Nc3cccc(F)c3)n2)ncn1 (stereo not shown) [Compound 106, N^2-(3-fluorophenyl)-N^6′-(2-methoxy-1-methylethyl) [4,4′-bipyrimidine]-2,6′-diamine]
pest or weed control at 200 ppm [1]: 24% | pest or weed control at 200 ppm [2]: 94% | pest or weed control at 200 ppm (Septoria nodorum): 99% | pest or weed control at 200 ppm (Septoria tritici): 17% | pest or weed control at 200 ppm (Fusarium graminearum): 32% | pest or weed control at 200 ppm (Botrytis cinerea): 85% | pest or weed control at 200 ppm [3]: 37% | Test J disease control rating (Rhizoctonia oryzae): 0% | Test K disease control rating (Phytophthora infestans): 0% | Test L disease control rating (Plasmopara viticola): 0% | Test M disease control rating (Pythium aphanidermatum): 0%

COCC(C)Nc1cc(-c2ccnc(Nc3cccc([N+](=O)[O-])c3)n2)ncn1 (stereo not shown) [Compound 107, N^6′-(2-methoxy-1-methylethyl)-N^2-(3-nitrophenyl) [4,4′-bipyrimidine]-2,6′-diamine]
pest or weed control at 200 ppm [1]: 0% | pest or weed control at 200 ppm [2]: 94% | pest or weed control at 200 ppm (Septoria nodorum): 100% | pest or weed control at 200 ppm (Septoria tritici): 8% | pest or weed control at 200 ppm (Fusarium graminearum): 89% | pest or weed control at 200 ppm (Botrytis cinerea): 28% | pest or weed control at 200 ppm [3]: 72% | Test J disease control rating (Rhizoctonia oryzae): 0% | Test K disease control rating (Phytophthora infestans): 0% | Test L disease control rating (Plasmopara viticola): 0% | Test M disease control rating (Pythium aphanidermatum): 0%

COCC(C)Nc1cc(-c2ccnc(Nc3cccc(Cl)c3)n2)ncn1 (stereo not shown) [Compound 105, N^2-(3-chlorophenyl)-N^6′-(2-methoxy-1-methylethyl) [4,4′-bipyrimidine]-2,6′-diamine]
pest or weed control at 200 ppm [1]: 0% | pest or weed control at 200 ppm [2]: 97% | pest or weed control at 200 ppm (Septoria nodorum): 92% | pest or weed control at 200 ppm (Fusarium graminearum): 73% | pest or weed control at 200 ppm (Botrytis cinerea): 78% | pest or weed control at 200 ppm [3]: 0% | Test J disease control rating (Rhizoctonia oryzae): 0% | Test K disease control rating (Phytophthora infestans): 0% | Test L disease control rating (Plasmopara viticola): 0% | Test M disease control rating (Pythium aphanidermatum): 0%

CC(CO)Nc1nccc(-c2ccnc(Nc3cccc(F)c3)c2)n1 (stereo not shown) [Compound 48]
Test A disease control rating [1]: 0% | Test B disease control rating [2]: 99% | Test C disease control rating (Septoria nodorum): 87% | Test E disease control rating (Fusarium graminearum): 0% | Test F disease control rating (Botrytis cinerea): 15% | Test I disease control rating [3]: 26% | Test J disease control rating (Rhizoctonia oryzae): 0% | Test K disease control rating (Phytophthora infestans): 0% | Test L disease control rating (Plasmopara viticola): 0% | Test M disease control rating (Pythium aphanidermatum): 0%

COCC(C)Nc1nccc(-c2ccnc(Nc3ccccc3)c2)n1 (stereo not shown) [Compound 43]
Test A disease control rating [1]: 29% | Test B disease control rating [2]: 99% | Test C disease control rating (Septoria nodorum): 99% | Test E disease control rating (Fusarium graminearum): 100% | Test F disease control rating (Botrytis cinerea): 92% | Test I disease control rating [3]: 90% | Test J disease control rating (Rhizoctonia oryzae): 9% | Test K disease control rating (Phytophthora infestans): 0% | Test L disease control rating (Plasmopara viticola): 0% | Test M disease control rating (Pythium aphanidermatum): 0%

COCC(C)Nc1nccc(-c2ccnc(Nc3cccc([N+](=O)[O-])c3)c2)n1 (stereo not shown) [Compound 44]
Test A disease control rating [1]: 0% | Test B disease control rating [2]: 89% | Test C disease control rating (Septoria nodorum): 98% | Test E disease control rating (Fusarium graminearum): 99% | Test F disease control rating (Botrytis cinerea): 0% | Test I disease control rating [3]: 40% | Test J disease control rating (Rhizoctonia oryzae): 0% | Test K disease control rating (Phytophthora infestans): 0% | Test L disease control rating (Plasmopara viticola): 0% | Test M disease control rating (Pythium aphanidermatum): 0%

CC(C)(C)Nc1nccc(-c2ccnc(Nc3cccc(F)c3)c2)n1 [Compound 45]
Test A disease control rating [1]: 77% | Test B disease control rating [2]: 79% | Test C disease control rating (Septoria nodorum): 98% | Test E disease control rating (Fusarium graminearum): 90% | Test F disease control rating (Botrytis cinerea): 20% | Test I disease control rating [3]: 8% | Test J disease control rating (Rhizoctonia oryzae): 0% | Test K disease control rating (Phytophthora infestans): 0% | Test L disease control rating (Plasmopara viticola): 0% | Test M disease control rating (Pythium aphanidermatum): 0%

COCC(C)Nc1nccc(-c2ccnc(Nc3c(F)cccc3F)c2)n1 (stereo not shown) [Compound 49]
Test A disease control rating [1]: 86% | Test B disease control rating [2]: 99% | Test C disease control rating (Septoria nodorum): 92% | Test E disease control rating (Fusarium graminearum): 81% | Test F disease control rating (Botrytis cinerea): 90% | Test I disease control rating [3]: 67% | Test J disease control rating (Rhizoctonia oryzae): 0% | Test K disease control rating (Phytophthora infestans): 0% | Test L disease control rating (Plasmopara viticola): 0% | Test M disease control rating (Pythium aphanidermatum): 0%

COCC(C)Nc1nccc(-c2ccnc(Nc3cccc(C)c3)c2)n1 (stereo not shown) [Compound 51]
Test A disease control rating [1]: 88% | Test B disease control rating [2]: 99% | Test C disease control rating (Septoria nodorum): 98% | Test E disease control rating (Fusarium graminearum): 48% | Test F disease control rating (Botrytis cinerea): 99% | Test I disease control rating [3]: 92% | Test J disease control rating (Rhizoctonia oryzae): 0% | Test K disease control rating (Phytophthora infestans): 0% | Test L disease control rating (Plasmopara viticola): 0% | Test M disease control rating (Pythium aphanidermatum): 0%
